According to patent US9006487B2, “Amine-containing lipids and uses thereof” (Massachusetts Institute of Technology, priority 2005, dated 2015):
Values joined by “and” are separate entries in the source; they are usually repeats but may differ in a detail not shown here. Identical values can stand only once.

System: cos-7 cells
Experiment: DNA transfection: luciferase expression relative to Lipofectamine 2000
Type: cell-based
Settings: for Luciferase expression as a percentage of that achieved using Lipofectamine 2000: 300 ng Luciferase DNA per well; for luciferase expression (second part of table, values relative to LIPO2000): 300 ng of DNA per well
Method in brief: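 Lipid/DNA complexes, 300 ng luciferase DNA per well at 2.5-25 w/w lipid:DNA, were formed in sodium acetate/Optimem and added to overnight-seeded cos-7 cells. Luciferase was measured by Bright-Glo luminescence after 48 hours and quantified against an enzyme standard curve. Values are expressed as % of Lipofectamine 2000 at 2.5 w/w.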

[1] = lipid/DNA 2.5 w/w, luciferase assay after 48 hours
[2] = lipid/DNA 5 w/w, luciferase assay after 48 hours
[3] = lipid/DNA 10 w/w, luciferase assay after 48 hours
[4] = lipid/DNA 15 w/w, luciferase assay after 48 hours
[5] = lipid/DNA 20 w/w, luciferase assay after 48 hours
[6] = lipid/DNA 25 w/w, luciferase assay after 48 hours

Structure (SMILES) | Luciferase expression as a percentage of that achieved using Lipofectamine 2000 [1] | Luciferase expression as a percentage of that achieved using Lipofectamine 2000 [2] | Luciferase expression as a percentage of that achieved using Lipofectamine 2000 [3] | Luciferase expression as a percentage of that achieved using Lipofectamine 2000 [4] | Luciferase expression as a percentage of that achieved using Lipofectamine 2000 [5] | Luciferase expression as a percentage of that achieved using Lipofectamine 2000 [6] | luciferase expression (second part of table, values relative to LIPO2000) (lipid/DNA 2.5 w/w) | luciferase expression (second part of table, values relative to LIPO2000) (lipid/DNA 5 w/w) | luciferase expression (second part of table, values relative to LIPO2000) (lipid/DNA 10 w/w) | luciferase expression (second part of table, values relative to LIPO2000) (lipid/DNA 15 w/w) | luciferase expression (second part of table, values relative to LIPO2000) (lipid/DNA 20 w/w) | luciferase expression (second part of table, values relative to LIPO2000) (lipid/DNA 25 w/w) | Luciferase expression as a percentage of that achieved using Lipofectamine 2000 (lipid/DNA 2.5 w/w, 72 hours incubation before bright-glo) | Luciferase expression as a percentage of that achieved using Lipofectamine 2000 (lipid/DNA 5 w/w, 72 hours incubation before bright-glo) | Luciferase expression as a percentage of that achieved using Lipofectamine 2000 (lipid/DNA 10 w/w, 72 hours incubation before bright-glo) | Luciferase expression as a percentage of that achieved using Lipofectamine 2000 (lipid/DNA 15 w/w, 72 hours incubation before bright-glo) | Luciferase expression as a percentage of that achieved using Lipofectamine 2000 (lipid/DNA 20 w/w, 72 hours incubation before bright-glo) | Luciferase expression as a percentage of that achieved using Lipofectamine 2000 (lipid/DNA 25 w/w, 72 hours incubation before bright-glo)
CCCCCCCCCCCCCCCOC(=O)CCN(CCCOC)CCC(=O)OCCCCCCCCCCCCCCC [LG1] | 0.0% | 0.0% | 0.0% | 0.0% | 0.0% | 0.0% |  |  |  |  |  |  |  |  |  |  |  | 
CCCCCCCCCCCCCCCOC(=O)CCN(CCOC)CCC(=O)OCCCCCCCCCCCCCCC [LG10] | 0.0% | 0.0% | 0.0% | 0.0% | 0.0% | 0.0% |  |  |  |  |  |  |  |  |  |  |  | 
CCCCCCCCCCCCCCCOC(=O)CCN(CCOCC)CCC(=O)OCCCCCCCCCCCCCCC [LG11] | 0.0% | 0.0% | 0.0% | 0.0% | 0.0% | 0.0% |  |  |  |  |  |  |  |  |  |  |  | 
CCCCCCCCCCCCCCCOC(=O)CCN(CCC(=O)OCCCCCCCCCCCCCCC)CC(OC)OC [LG13] | 0.0% | 0.0% | 0.0% | 0.0% | 0.0% | 0.0% |  |  |  |  |  |  |  |  |  |  |  | 
CCCCCCCCCCCCCCCOC(=O)CCN(CCC(=O)OCCCCCCCCCCCCCCC)CC1CCCO1 (centres unmarked) [LG15] | 0.7% | 0.8% | 0.5% | 0.6% | 0.7% | 0.8% |  |  |  |  |  |  |  |  |  |  |  | 
CCCCCCCCCCCCCCCOC(=O)CCN(CCC(=O)OCCCCCCCCCCCCCCC)CCc1ccc(OC)c(OC)c1 [LG17] | 0.4% | 0.3% | 0.1% | 0.0% | 0.3% | 0.3% |  |  |  |  |  |  |  |  |  |  |  | 
CCCCCCCCCCCCCCCOC(=O)CCN(CCCO)CCC(=O)OCCCCCCCCCCCCCCC [LG20] | 2.0% | 2.5% | 0.4% | 0.2% | 0.1% | 0.1% |  |  |  |  |  |  |  |  |  |  |  | 
CCCCCCCCCCCCCCCOC(=O)CCN(CCC(=O)OCCCCCCCCCCCCCCC)CC(C)O (centres unmarked) [LG21] | 0.1% | 0.1% | 0.1% | 0.2% | 0.2% | 0.4% |  |  |  |  |  |  |  |  |  |  |  | 
CCCCCCCCCCCCCCCOC(=O)CCN(CCC(=O)OCCCCCCCCCCCCCCC)C[C@H](C)O [LG22] | 0.2% | 0.3% | 0.4% | 0.5% | 0.4% | 0.7% |  |  |  |  |  |  |  |  |  |  |  | 
CCCCCCCCCCCCCCCOC(=O)CCN(CCC(=O)OCCCCCCCCCCCCCCC)CC(O)CO (centres unmarked) [LG24] | 2.0% | 3.3% | 4.8% | 11.2% | 16.4% | 32.5% |  |  |  |  |  |  |  |  |  |  |  | 
CCCCCCCCCCCCCCCOC(=O)CCN(CCC(=O)OCCCCCCCCCCCCCCC)C(CO)CO [LG25] | 15.9% | 32.0% | 43.2% | 56.9% | 42.1% | 63.9% | 15.9 | 32.0 | 43.2 | 56.9 | 42.1 | 63.9 |  |  |  |  |  | 
CCCCCCCCCCCCCCCOC(=O)CCN(CCC(=O)OCCCCCCCCCCCCCCC)C(C)(CO)CO [LG26] | 0.6% | 13.0% | 1.9% | 0.5% | 0.3% | 0.4% |  |  |  |  |  |  |  |  |  |  |  | 
CCCCCCCCCCCCCCCOC(=O)CCN(CCCCO)CCC(=O)OCCCCCCCCCCCCCCC [LG28] | 0.2% | 0.5% | 0.2% | 0.2% | 0.1% | 0.2% |  |  |  |  |  |  |  |  |  |  |  | 
CCCCCCCCCCCCCCCOC(=O)CCN(CCC(=O)OCCCCCCCCCCCCCCC)CC(C)(C)CO [LG33] | 0.1% | 0.1% | 0.1% | 0.1% | 0.1% | 0.1% |  |  |  |  |  |  |  |  |  |  |  | 
CCCCCCCCCCCCCCCOC(=O)CCN(CCC(=O)OCCCCCCCCCCCCCCC)C(CC)(CO)CO [LG34] |  |  | 1.4% | 0.8% |  |  |  |  |  |  |  |  |  |  |  |  |  | 
CCCCCCCCCCCCCCCOC(=O)CCN(C)CCN(C)CCC(=O)OCCCCCCCCCCCCCCC [LG60] | 0.9% | 1.0% | 0.8% | 0.9% | 0.8% | 1.0% |  |  |  |  |  |  |  |  |  |  |  | 
CCCCCCCCCCCCCCCOC(=O)CCN(CC)CCN(CC)CCC(=O)OCCCCCCCCCCCCCCC [LG61] | 0.4% | 0.5% | 0.4% | 0.4% | 0.4% | 0.5% |  |  |  |  |  |  |  |  |  |  |  | 
CCCCCCCCCCCCCCCOC(=O)CCN(CC)CCCN(CC)CCC(=O)OCCCCCCCCCCCCCCC [LG64] | 0.0% and 0.2% | 0.0% and 0.1% | 0.0% and 0.1% | 0.0% and 0.1% | 0.0% and 0.1% | 0.0% and 0.2% |  |  |  |  |  |  | 0.3% | 0.3% | 1.8% | 1.8% | 1.2% | 1.6%
